We go through ten compounds from patent US20110086797A1, “CONTROL OF SPORE GERMINATION” (priority 2007, published 2011).

“Also recorded” adds a separate entry of the source. Where two headings read alike, the source gives them in different places.

The subject of data set [1] is B. subtilis spores. The data set is described as follows: Measurement of germination by loss of heat resistance. It counts as cell-based, Bacillus subtilis.
Data set [2] relates to B. subtilis wild type spores. The data set is described as follows: Sensitivity to antibiotic (tetracycline) after stimulation of germination. As to conditions: for % Loss in viable cells: germinant 60 min at 37° C. (muropeptide 40 μM, bryostatin 1 μM), then tetracycline 10 μg/ml 60 min, relative to no germinant.
In data set [3] the test system is B. subtilis spores. The data set is described as follows: Measurement of germination by fluorescence (Syto-9 dye). The class given is cell-based, Bacillus subtilis. The following applies: 1 μM Bryostatin.

`CC(=O)N[C@H]1C(O)O[C@H](CO)[C@@H](O)[C@@H]1O[C@H](C)C(=O)N[C@@H](C)C(=O)N[C@H](CCC(=O)O)C(N)=O` (mixture of isomers) [muramyl dipeptide]: the “germination of wild type spores (result in words)” value (“germination of wild type spores” below) in data set [1] is given as “failed to induce germination”.

With `CCC/C=C/C=C/C(=O)O[C@H]1/C(=C/C(=O)OC)C[C@H]2C[C@H]([C@@H](C)O)OC(=O)C[C@H](O)C[C@@H]3C[C@H](OC(C)=O)C(C)(C)[C@](O)(C[C@@H]4C/C(=C/C(=O)OC)C[C@H](/C=C/C(C)(C)[C@]1(O)O2)O4)O3` [Bryostatin], in data set [2], the “% Loss in viable cells” value is 32 ± 7%. Further, the “sensitivity of treated spores to antibiotics (result in words)” value in data set [2] (wild type B. subtilis spores, tetracycline and spectinomycin) is “become sensitive to the ribosomal antibiotics tetracycline and spectinomycin”. In addition, the “germination of ΔprkC spores (result in words)” value (“germination of ΔprkC spores” below) in data set [1] is on record as “had no effect”. In data set [1] ([…], 1.0 μM bryostatin, 60 min), the maximum % germination is roughly 40%. Also, the “Fluorescence Germination Results” value in data set [3] (Wild-type spores, 5' at 37° C., excitation/emission 485/530) was found to be 14331; in data set [3] (ΔprKC (kinase mutant) spores, 5' at 37° C., 485/530) it was 5208; in data set [3] (ΔprpC (phosphatase mutant) spores, 5' at 37° C., 485/530), 13183; in data set [3] (ΔprpC, PrpC (phosphatase mutant overexpressing phosphatase from an ectopic site) spores, 485/530) it was 5529.

As to `O=C([O-])c1cccc(C(=O)[O-])n1.[Ca+2]` [Ca^2+-dipicolinic acid], the “germination of ΔprkC spores” value in data set [1] is reported as “still responded”.

On to `C[C@@H](N)C(=O)O` [D-alanine], for which the “inhibition of cell wall / peptidoglycan dependent germination (result in words)” value in data set [1] is “did not block cell wall dependent germination”.

In the case of `C[C@H](N)C(=O)O` [L-alanine], the “germination of ΔprkC spores” value was “still responded” in data set [1] and “still respond to alanine” in data set [1] (listed as alanine).

As to `CCCCCCCCCCCCCC(=O)O[C@@H]1[C@@H](C)[C@@]2(O)[C@@H](C=C(CO)C[C@]3(O)C(=O)C(C)=C[C@@H]23)[C@@H]2C(C)(C)[C@]12OC(C)=O` [PMA, phorbol-12-myristate-13-acetate], the “germination of wild type spores” value in data set [1] is “chemically induces germination”.

For `CN[C@@H]1C[C@H]2O[C@@](C)([C@@H]1OC)n1c3ccccc3c3c4c(c5c6ccccc6n2c5c31)C(=O)NC4` [staurosporine], the “germination with increasing amounts of peptidoglycan in the presence of inhibitor” value in data set [1] (10 pM staurosporine, […]) is reported as “did not increase germination”. The “concentration as low as which significantly reduced peptidoglycan-dependent germination” value in data set [1] ([…], 100 ng/ml B. subtilis peptidoglycan, 60 min) is 10 pM. The “effect on L-alanine germination” value in data set [1] (data not shown) is reported as “unaffected”.

As to Ala-D-γ-Glu-Dpm tripeptide, in data set [1] (wild type B. subtilis spores), the “germination of wild type spores” value is given as “failed to induce germination”.

Consider GlcNAc-MurNAc tripeptide [Muropeptide], for which the “% Loss in viable cells” value in data set [2] stood at 72 ± 3%. For the same compound, in data set [1], the “concentration as low as which led to germination” value turned out to be 1 µM and the “germination of ΔprkC spores” value was “failed to germinate”.

Teleocidin: in data set [1], the “germination of wild type spores” value is “able to stimulate germination of only the wildtype spore; also recorded: stimulated germination of wildtype spores” and the “germination of ΔprkC spores” value is given as “able to stimulate germination of only the wildtype spore”.
